This is an account of results in BindingDB's records for doi:10.1016/j.bmcl.2007.03.076 (Tanabe Research Laboratories Usa, 2007).

The test deals with T1, Oxysterols receptor LXR-beta (Homo sapiens, UniProt P55055).
T1 sequence (P55055 whole entry): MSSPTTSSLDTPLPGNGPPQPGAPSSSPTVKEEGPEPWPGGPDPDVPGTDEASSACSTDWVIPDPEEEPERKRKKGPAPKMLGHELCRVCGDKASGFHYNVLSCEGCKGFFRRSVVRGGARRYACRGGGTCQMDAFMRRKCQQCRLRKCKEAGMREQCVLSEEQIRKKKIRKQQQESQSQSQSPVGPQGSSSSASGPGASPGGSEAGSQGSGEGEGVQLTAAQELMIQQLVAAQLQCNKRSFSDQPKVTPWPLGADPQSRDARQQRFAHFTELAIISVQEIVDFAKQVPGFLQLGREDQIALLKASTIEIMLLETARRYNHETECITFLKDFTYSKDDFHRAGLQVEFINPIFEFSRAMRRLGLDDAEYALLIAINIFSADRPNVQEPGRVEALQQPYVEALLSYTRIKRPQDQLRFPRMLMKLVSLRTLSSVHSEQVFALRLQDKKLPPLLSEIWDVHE
Kind of test: HTRF Cofactor Peptide Recruitment Assay. The conditions noted are these: pH 7.5; 22 °C. As to the method:
Polyhistidine-tagged human LXR ligand-binding domain was mixed with the test compound, biotin-SRC1 peptide, streptavidin-allophycocyanin, and europium labeled anti-polyhistidine antibody in reaction buffer, and the mixture was incubated in a 384-well assay plate format. Time-resolved fluorescence was measured at 615 and 665 nm on a LJL Analyst plate reader. The ratio of 665/615 was used to calculate EC50 values of test compounds.
Background: In TR-FRET formats the signal depends on donor and acceptor labels being close together.

Each structure is given as a SMILES string.

As for `CC(C)(C)OC(=O)n1c(-c2ccc3c(c2)CC(NS(=O)(=O)c2ccccc2)C3)cc2ccccc21` (stereo unspecified) [tert-butyl 2-(2-benzenesulfonamido-2,3-dihydro-1H-inden-5-yl)-1H-indole-1-carboxylate], the response was half-maximal at 0.21 µM (EC50).

Usually EC50 stands for the concentration giving half of the maximal effect.
